Measured values from the supplement of paper PMC10307832.

How the values were obtained:
Assay in all cases: relative viability (nuclei count vs DMSO), 5 days (fraction); higher = more cells survive
[1] = compound: CN(C)C[C@@H]1CCn2cc(c3ccccc32)C2=C(C(=O)NC2=O)c2cn(c3ccccc23)CCO1 [Ruboxistaurin] + CC(=O)Nc1cccc(-n2c(=O)n(C3CC3)c(=O)c3c(Nc4ccc(I)cc4F)n(C)c(=O)c(C)c32)c1 [Trametinib] (partner 0.02 µM)
Outline: (§1)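 Five library-drug doses in √10 steps were combined with a fixed anchor-drug dose, or a single drug was given alone, by pin tool to lung cancer cell lines in 1536-well plates the day after seeding. Nuclei were stained and counted after 5 days. Relative viability is the nuclei count in treated wells over that in vehicle wells, taken as the median of duplicate plates.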

[2] = compound: CN(C)C[C@@H]1CCn2cc(c3ccccc32)C2=C(C(=O)NC2=O)c2cn(c3ccccc23)CCO1 [Ruboxistaurin] + CC1(C)CCC(c2ccc(Cl)cc2)=C(CN2CCN(c3ccc(C(=O)NS(=O)(=O)c4ccc(N[C@H](CCN5CCOCC5)CSc5ccccc5)c(S(=O)(=O)C(F)(F)F)c4)cc3)CC2)C1 [Navitoclax] (partner 0.5 µM)
Outline: as §1

[3] = compound: CN(C)C[C@@H]1CCn2cc(c3ccccc32)C2=C(C(=O)NC2=O)c2cn(c3ccccc23)CCO1 [Ruboxistaurin] + CCNC(=O)c1noc(-c2cc(C(C)C)c(O)cc2O)c1-c1ccc(CN2CCOCC2)cc1 [Luminespib] (partner 0.01 µM)
Outline: as §1

[4] = compound: CN(C)C[C@@H]1CCn2cc(c3ccccc32)C2=C(C(=O)NC2=O)c2cn(c3ccccc23)CCO1 [Ruboxistaurin] + NC(=O)Nc1cc(-c2cccc(F)c2)sc1C(=O)N[C@H]1CCCNC1 [AZD7762] (partner 0.2 µM)
Outline: as §1

[5] = compound: CN(C)C[C@@H]1CCn2cc(c3ccccc32)C2=C(C(=O)NC2=O)c2cn(c3ccccc23)CCO1 [Ruboxistaurin] + Nc1ncn([C@H]2C[C@H](O)[C@@H](CO)O2)c(=O)n1 [Decitabine] (partner 2 µM)
Outline: as §1

Cell Line	relative viability ([1]; first compound 0.08 µM)	relative viability ([1]; first compound 0.8 µM)	relative viability ([1]; first compound 2.53 µM)	relative viability ([1]; first compound 8 µM)	relative viability ([2]; first compound 0.08 µM)	relative viability ([2]; first compound 0.8 µM)	relative viability ([2]; first compound 2.53 µM)	relative viability ([2]; first compound 8 µM)	relative viability ([3]; first compound 0.08 µM)	relative viability ([3]; first compound 0.8 µM)	relative viability ([3]; first compound 2.53 µM)	relative viability ([3]; first compound 8 µM)	relative viability ([4]; first compound 0.08 µM)	relative viability ([4]; first compound 0.8 µM)	relative viability ([4]; first compound 2.53 µM)	relative viability ([4]; first compound 8 µM)	relative viability ([5]; first compound 0.08 µM)	relative viability ([5]; first compound 0.8 µM)	relative viability ([5]; first compound 2.53 µM)	relative viability ([5]; first compound 8 µM)
LC-2-ad	0.953	0.877	0.928	0.984	0.474	0.395	0.557	0.345	1.22	0.989	1.01	1.1	0.882	0.807	0.862	0.813	0.71	0.887	0.753	0.847
LCLC-97TM1	0.207	0.141	0.203	0.154	0.672	–	0.332	0.411	0.769	0.815	0.741	0.675	0.268	0.297	0.442	0.416	0.179	0.191	0.278	0.231
LK-2	0.65	0.933	0.85	0.589	0.893	0.792	0.875	0.674	0.22	0.182	0.154	0.172	0.402	0.448	0.377	0.19	0.356	0.315	0.402	0.238
LOU-NH91	0.802	0.751	0.807	0.773	0.846	0.58	0.738	0.692	0.286	0.298	0.361	0.369	0.823	0.74	0.792	0.726	0.909	0.772	0.855	0.775
LU99A	0.492	0.509	0.508	0.472	0.883	0.71	0.798	0.716	0.239	0.224	0.265	0.24	0.385	0.312	0.349	0.289	0.861	0.762	1.01	0.773
LXF-289	0.653	0.631	0.66	0.684	0.967	0.928	0.931	1.04	0.679	0.628	0.677	0.754	1.12	1.03	1.07	1.17	0.377	0.338	0.38	0.418
NCI-H23	0.375	0.346	0.409	0.32	0.897	0.59	0.91	0.68	0.23	0.213	0.225	0.2	0.234	0.262	0.185	0.279	0.279	0.259	0.364	0.283
NCI-H322M	0.538	0.477	0.535	0.404	1.2	1.09	1.24	1.19	0.836	0.718	0.766	0.399	0.56	0.564	0.573	0.475	0.746	0.656	0.6	0.619
NCI-H441	0.523	0.453	0.529	0.366	0.682	0.464	0.928	0.66	0.407	0.276	0.355	0.338	1.08	1.1	1.15	1.34	0.278	0.309	0.277	0.269
NCI-H460	0.225	0.113	0.14	0.13	1.2	1.03	1.16	0.935	0.0344	0.0361	0.0325	0.0312	0.652	0.669	0.751	0.574	0.49	0.448	0.533	0.595
NCI-H596	0.892	0.766	0.727	0.796	0.962	0.845	0.983	0.69	0.93	0.943	1.26	0.794	1.14	0.942	0.972	0.812	0.978	0.892	0.987	0.973
NCI-H647	0.568	0.374	0.473	0.431	1.23	1	1.17	1.2	0.17	0.114	0.217	0.232	0.529	0.422	0.452	0.371	0.442	0.33	0.373	0.547
NCI-H727	0.361	0.395	0.384	0.367	0.46	0.394	0.458	0.338	0.345	–	0.355	0.323	0.657	0.607	0.487	0.61	0.862	0.839	0.976	0.639
NCI-H838	0.58	0.461	0.513	0.504	1.38	1.05	1.3	0.979	0.292	0.239	0.425	0.382	0.749	0.855	0.877	0.977	0.476	0.445	0.526	0.583
NCI-H1355	0.462	0.361	0.394	0.357	1.09	0.853	0.897	0.813	0.734	0.592	0.788	0.534	0.901	0.615	0.709	0.576	0.37	0.356	0.347	0.411
